Read-outs that look alike come from different tables or passages of the source.
Legend:
Type in all cases: binding
[1] = molecular target: T1, XIAP His-BIR2 (124-240/C202A/C213G) (Homo sapiens, UniProt P98170, C202A/C213G); assay: XIAP-BIR2/SMAC Peptide AlphaScreen Assay
T1 construct: additions of His-BIR2 (124-240/C202A/C213G), Biotinylated SMAC peptide

[2] = molecular target: N-His-Tb-BIR3(241-356, XIAP) (Homo sapiens, UniProt P98170); assay: XIAP-BIR3 SMAC Peptide Fluorescence Polarization Assay (FPA)
Sequence of N-His-Tb-BIR3(241-356, XIAP) (P98170 241-356): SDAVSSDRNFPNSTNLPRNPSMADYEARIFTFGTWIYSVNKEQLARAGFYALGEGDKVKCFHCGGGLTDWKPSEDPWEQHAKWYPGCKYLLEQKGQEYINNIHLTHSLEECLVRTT

[3] = molecular target: N-His-Tb-BIR3(262-352, cIAP1) (Homo sapiens, UniProt Q13490); assay: cIAP1-BIR3 SMAC Peptide Fluorescence Polarization Assay (FPA); settings: Table 3
Sequence of N-His-Tb-BIR3(262-352, cIAP1) (Q13490 262-352): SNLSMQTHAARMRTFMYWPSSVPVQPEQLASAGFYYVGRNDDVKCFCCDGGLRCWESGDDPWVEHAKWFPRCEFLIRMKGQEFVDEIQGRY
Experimental: C. cIAP1-BIR3SMAC Peptide Fluorescence Polarization Assay (FPA)
Assays were performed in black, round-bottom, 96-well plates. The final assay volume was 30 μL prepared from additions of N-His-Tb-BIR3(262-352, cIAP1), fluoresceinated modified SMAC peptide, and test compounds in assay buffer consisting of 20 mM Sodium Phosphate, 1 mM EDTA, 50 mM NaCl, and 0.05% Pluronic F68. The reaction was incubated at room temperature for 60 minutes and fluorescence polarization of the reaction was detected on the LJL Plate Reader. […] The final concentration of reagents in the assay was 36.1 nM N-His-Tb-BIR3(262-352, cIAP1), 1.4 nM fluoresceinated modified SMAC peptide, and 1% DMSO. […] Compounds were dissolved at 10 mM in dimethylsulfoxide (DMSO) and evaluated at eight concentrations. IC50 values were derived by non-linear regression analysis.

His-BIR3 (241-356, XIAP) = molecular target: T2, His-BIR3 (241-356, XIAP) (Homo sapiens, UniProt P98170); assay: XIAP-BIR3/SMAC Homogeneous Time Resolved Fluorescence (HTRF) Assay; settings: Table 4
T2 construct: additions of His-BIR3 (241-356, XIAP), fluorescein labeled SMAC peptide
T2 sequence (P98170 241-356): as the sequence (P98170 241-356) above

[4] = molecular target: T3, His-BIR2-3 (125-356, C202A/C213G, XIAP) (Homo sapiens, UniProt P98170, C202A/C213G); assay: XIAP-BIR2-3 Dimeric SMAC Peptide Homogeneous Time Resolved Fluorescence (HTRF) Assay; settings: XIAP BIR2-3, HTRF, Table 4
T3 construct: additions of His-BIR2-3 (125-356, C202A/C213G, XIAP), fluorescein labeled dimeric SMAC peptide
T3 sequence (P98170 125-356 C202A/C213G): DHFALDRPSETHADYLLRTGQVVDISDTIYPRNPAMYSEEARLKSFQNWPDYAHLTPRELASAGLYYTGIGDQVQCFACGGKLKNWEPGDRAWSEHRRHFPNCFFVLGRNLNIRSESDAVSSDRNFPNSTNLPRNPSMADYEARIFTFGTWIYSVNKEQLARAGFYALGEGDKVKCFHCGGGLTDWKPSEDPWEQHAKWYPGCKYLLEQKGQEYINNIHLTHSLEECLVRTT

[5] = XIAP BIR2, AlphaScreen, Table 2, read-out: BIR2 IC50
[6] = XIAP BIR2, Alphascreen, Table 4, read-out: BIR2 Alpha Screen IC50

T1 sequence (P98170 124-240 C202A/C213G): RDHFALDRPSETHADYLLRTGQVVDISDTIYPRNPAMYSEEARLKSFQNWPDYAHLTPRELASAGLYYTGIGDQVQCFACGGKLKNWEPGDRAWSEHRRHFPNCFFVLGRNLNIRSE

Compound	IC50 [1, 5] [nM]	IC50 [2] [nM]	IC50 [3] [nM]	IC50 [1, 6] [nM]	IC50 (His-BIR3 (241-356, XIAP)) [nM]	IC50 [4] [nM]
CN[C@@H](C)C(=O)N[C@H](C(=O)N1C[C@@H]2C[C@H]1C(=O)N[C@@H](Cc1ccc3ccccc3c1)C(=O)N[C@H](C(=O)O)Cc1ccc(cc1)OCc1cn(nn1)[C@H]1C[C@@H](C(=O)N[C@@H](Cc3ccc4ccccc4c3)C(=O)N[C@H](C(=O)O)Cc3ccc(cc3)OCc3cn2nn3)N(C(=O)[C@@H](NC(=O)[C@H](C)NC)C(C)C)C1)C(C)C [Compound 110]	< 2000	< 50	< 50			
CN[C@@H](C)C(=O)N[C@H](C(=O)N1C[C@@H]2C[C@H]1C(=O)N[C@@H](Cc1cccc3ccccc13)C(=O)N[C@H](C(=O)O)Cc1ccc(cc1)COc1cn(nn1)[C@H]1C[C@@H](C(=O)N[C@@H](Cc3cccc4ccccc34)C(=O)N[C@H](C(=O)O)Cc3ccc(cc3)OCc3cn2nn3)N(C(=O)[C@@H](NC(=O)[C@H](C)NC)C(C)C)C1)C(C)C [Compound 111]	< 2000	< 50	< 50			
CN[C@@H](C)C(=O)N[C@H](C(=O)N1C[C@@H]2C[C@H]1C(=O)N[C@@H](Cc1ccccc1)C(=O)N[C@H](C(=O)O)Cc1ccc(cc1)OCCCn1cc(nn1)-c1ccc(cc1)-c1cn(nn1)[C@H]1C[C@@H](C(=O)N[C@@H](Cc3ccccc3)C(=O)N[C@H](C(=O)O)Cc3ccc(cc3)OCCCn3cc(nn3)-c3ccc(cc3)-c3cn2nn3)N(C(=O)[C@@H](NC(=O)[C@H](C)NC)C(C)C)C1)C(C)C [Compound 137]	< 2000	< 50	< 50			
CN[C@@H](C)C(=O)N[C@H](C(=O)N1CC2C[C@H]1C(=O)N[C@@H](Cc1ccc3ccccc3c1)C(=O)N[C@H](C(=O)O)Cc1cn(nn1)[C@H]1C[C@@H](C(=O)N[C@@H](Cc3ccc4ccccc4c3)C(=O)N[C@H](C(=O)O)Cc3cn2nn3)N(C(=O)[C@@H](NC(=O)[C@H](C)NC)C(C)C)C1)C(C)C [Compound 140]	< 2000	< 50				
CN[C@@H](C)C(=O)N[C@H](C(=O)N1C[C@@H]2C[C@H]1C(=O)N[C@@H](Cc1ccc3ccccc3c1)C(=O)N[C@H](C(=O)O)Cc1ccc(cc1)OCc1cn(nn1)[C@H]1C[C@@H](C(=O)N[C@@H](Cc3ccc4ccccc4c3)C(=O)N[C@H](C(=O)NS(=O)(=O)C3CC3)Cc3ccc(cc3)OCc3cn2nn3)N(C(=O)[C@@H](NC(=O)[C@H](C)NC)C(C)(C)C)C1)C(C)(C)C [Compound 147]		< 50		< 2000	< 10	1 to 10
CN[C@@H](C)C(=O)N[C@H](C(=O)N1C[C@@H]2C[C@H]1C(=O)N[C@@H](Cc1ccc3ccccc3c1)C(=O)N[C@H](C(=O)NS(=O)(=O)C1CC1)Cc1ccc(cc1)OCc1cn(nn1)[C@H]1C[C@@H](C(=O)N[C@@H](Cc3ccc4ccccc4c3)C(=O)N[C@H](C(=O)NS(=O)(=O)C3CC3)Cc3ccc(cc3)OCc3cn2nn3)N(C(=O)[C@@H](NC(=O)[C@H](C)NC)C(C)(C)C)C1)C(C)(C)C [Compound 148]		< 50		< 2000	< 10	≤ 1
CN[C@@H](C)C(=O)N[C@H](C(=O)N1C[C@@H]2C[C@H]1C(=O)N[C@@H](Cc1ccccc1)C(=O)N[C@H](C(=O)O)Cc1ccc(cc1)OCc1cn(nn1)[C@H]1C[C@@H](C(=O)N[C@@H](Cc3ccc4ccccc4c3)C(=O)N[C@H](C(=O)O)Cc3ccc(cc3)OCc3cn2nn3)N(C(=O)[C@@H](NC(=O)[C@H](C)NC)C(C)(C)C)C1)C(C)(C)C [Compound 149]		< 50		< 2000		
CN[C@@H](C)C(=O)N[C@H](C(=O)N1C[C@@H]2C[C@H]1C(=O)N[C@@H](Cc1ccccc1)C(=O)N[C@H](C(=O)O)Cc1ccc(cc1)OCc1cn(nn1)[C@H]1C[C@@H](C(=O)N[C@@H](Cc3ccc4ccccc4c3)C(=O)N[C@H](C(=O)OC)Cc3ccc(cc3)OCc3cn2nn3)N(C(=O)[C@@H](NC(=O)[C@H](C)NC)C(C)(C)C)C1)C(C)(C)C [Compound 150]		50 to 100		< 2000		
CN[C@@H](C)C(=O)N[C@H](C(=O)N1C[C@@H]2C[C@H]1C(=O)N[C@@H](Cc1ccc3ccccc3c1)C(=O)N[C@H](C(=O)O)Cc1ccc(cc1)OCc1cn(nn1)[C@H]1C[C@@H](C(=O)N[C@@H](Cc3ccc4ccccc4c3)C(=O)N[C@H](C(=O)NS(C)(=O)=O)Cc3ccc(cc3)OCc3cn2nn3)N(C(=O)[C@@H](NC(=O)[C@H](C)NC)C(C)(C)C)C1)C(C)(C)C [Compound 1002]		< 50		< 2000		
CN[C@@H](C)C(=O)N[C@H](C(=O)N1C[C@@H]2C[C@H]1C(=O)N[C@@H](Cc1ccc3ccccc3c1)C(=O)N[C@H](C(=O)NS(=O)(=O)c1ccccc1)Cc1ccc(cc1)OCc1cn(nn1)[C@H]1C[C@@H](C(=O)N[C@@H](Cc3ccc4ccccc4c3)C(=O)N[C@H](C(=O)NS(=O)(=O)c3ccccc3)Cc3ccc(cc3)OCc3cn2nn3)N(C(=O)[C@@H](NC(=O)[C@H](C)NC)C(C)(C)C)C1)C(C)(C)C [Compound 1003]		50 to 100		< 2000		
CN[C@@H](C)C(=O)N[C@H](C(=O)N1C[C@@H]2C[C@H]1C(=O)N[C@@H](Cc1ccc3ccccc3c1)C(=O)N[C@H](C(=O)NS(C)(=O)=O)Cc1ccc(cc1)OCc1cn(nn1)[C@H]1C[C@@H](C(=O)N[C@@H](Cc3ccc4ccccc4c3)C(=O)N[C@H](C(=O)NS(C)(=O)=O)Cc3ccc(cc3)OCc3cn2nn3)N(C(=O)[C@@H](NC(=O)[C@H](C)NC)C(C)(C)C)C1)C(C)(C)C [Compound 1004]		50 to 100		< 2000		
CCS(=O)(=O)NC(=O)[C@@H]1Cc2ccc(cc2)OCc2cn(nn2)[C@H]2C[C@@H](C(=O)N[C@@H](Cc3ccc4ccccc4c3)C(=O)N[C@H](C(=O)NS(=O)(=O)CC)Cc3ccc(cc3)OCc3cn(nn3)[C@H]3C[C@@H](C(=O)N[C@@H](Cc4ccc5ccccc5c4)C(=O)N1)N(C(=O)[C@@H](NC(=O)[C@H](C)NC)C(C)(C)C)C3)N(C(=O)[C@@H](NC(=O)[C@H](C)NC)C(C)(C)C)C2 [Compound 1005]		< 50		< 2000		
CN[C@@H](C)C(=O)N[C@H](C(=O)N1C[C@@H]2C[C@H]1C(=O)N[C@@H](Cc1ccc3ccccc3c1)C(=O)N[C@H](C(=O)NS(=O)(=O)C(F)(F)F)Cc1ccc(cc1)OCc1cn(nn1)[C@H]1C[C@@H](C(=O)N[C@@H](Cc3ccc4ccccc4c3)C(=O)N[C@H](C(=O)NS(=O)(=O)C(F)(F)F)Cc3ccc(cc3)OCc3cn2nn3)N(C(=O)[C@@H](NC(=O)[C@H](C)NC)C(C)(C)C)C1)C(C)(C)C [Compound 1007]		50 to 100		2000 to 12000		

From patent publication US20140309265A1, “MACROCYCLIC COMPOUNDS FOR INHIBITION OF INHIBITORS OF APOPTOSIS” (Ensemble Therapeutics, priority 2011, published 2014)
